From ChEMBL document CHEMBL1201862, “PubChem BioAssay data set” (2004)
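How tested: cells in 96-well plates exposed to compound for 48 hours at five concentrations. GI50: concentration for 50% inhibition of growth.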 Activity calls are given as the source filed them. No stated cut-off is given here; in the data, active = GI50 up to about 1.1 µM and inactive = higher.

Legend:
Assay in all cases: DTP human tumour cell line panel, 48 h
RXF 393 = test system: RXF 393
DU-145 = test system: DU-145
SR = test system: SR
K562 = test system: K562
MDA-MB-231 = test system: MDA-MB-231
MOLT-4 = test system: MOLT-4
MDA-N = test system: MDA-N
ACHN = test system: ACHN
LOX IMVI = test system: LOX IMVI
KM12 = test system: KM12
HT-29 = test system: HT-29
UO-31 = test system: UO-31
NCI-H522 = test system: NCI-H522
SK-MEL-28 = test system: SK-MEL-28
RPMI-8226 = test system: RPMI-8226
IGROV-1 = test system: IGROV-1
HOP-92 = test system: HOP-92
TK-10 = test system: TK-10
NCI-H23 = test system: NCI-H23
A498 = test system: A498

In the case of `O=C(c1ccccc1)c1ccc2[nH]c(-c3c(Cl)c(Cl)c(Cl)c(Cl)c3C(=O)N/N=C\C=C\c3ccccc3)nc2c1`, the GI50 (RXF 393) is reported as 21.8 µM (inactive), the GI50 (DU-145) is reported as 73.1 µM (inactive) and the GI50 (SR) is reported as 23.3 µM (inactive). The GI50 (K562) was 19.4 µM (inactive), the GI50 (MDA-MB-231) was 22.6 µM (inactive) and the GI50 (MOLT-4) was 17.7 µM (inactive). The GI50 (MDA-N) was 32.1 µM (inactive), the GI50 (ACHN) was 19.8 µM (inactive) and the GI50 (LOX IMVI) was 48.9 µM (inactive). For the same molecule, the GI50 (KM12) was 61.4 µM (inactive), the GI50 (HT-29) was 45 µM (inactive) and the GI50 (UO-31) was 39.5 µM (inactive). The GI50 (NCI-H522) was 26.9 µM (inactive), the GI50 (SK-MEL-28) was 51.3 µM (inactive) and the GI50 (RPMI-8226) was 17.5 µM (inactive). The GI50 (IGROV-1) was 34.4 µM (inactive), the GI50 (HOP-92) was 41.1 µM (inactive) and the GI50 (TK-10) was 86.9 µM (inactive). The GI50 (NCI-H23) was 59.3 µM (inactive).
`Cc1ccc(C(=O)/C=C2\Nc3ccccc3S\C2=N\CS(=O)(=O)c2ccc(C)cc2)cc1` was tested, and the GI50 (DU-145) was > 10 µM (inactive), the GI50 (SR) was > 10 µM (inactive) and the GI50 (K562) was > 10 µM (inactive). The GI50 (MDA-MB-231) was > 10 µM (inactive), the GI50 (MOLT-4) was > 10 µM (inactive) and the GI50 (MDA-N) was > 10 µM (inactive). For the same molecule, the GI50 (ACHN) was > 10 µM (inactive), the GI50 (LOX IMVI) was > 10 µM (inactive) and the GI50 (KM12) was > 10 µM (inactive). The GI50 (HT-29) was > 10 µM (inactive), the GI50 (NCI-H522) was 5.38 µM (inactive) and the GI50 (SK-MEL-28) was > 10 µM (inactive). For the same molecule, the GI50 (RPMI-8226) was > 10 µM (inactive), the GI50 (IGROV-1) was > 10 µM (inactive) and the GI50 (HOP-92) was > 10 µM (inactive). For the same molecule, the GI50 (TK-10) was > 10 µM (inactive) and the GI50 (NCI-H23) was > 10 µM (inactive).
With `CC(C)Oc1cccc(N2C(Nc3ccccc3)=Nc3ccncc3S2(=O)=O)c1` the GI50 (RXF 393) was 21.9 µM (inactive), the GI50 (DU-145) was 42.4 µM (inactive) and the GI50 (A498) was 25.7 µM (inactive). For the same molecule, the GI50 (SR) was 10.9 µM (inactive), the GI50 (K562) was 76 µM (inactive) and the GI50 (MDA-MB-231) was 15.2 µM (inactive). For the same molecule, the GI50 (MOLT-4) was > 100 µM (inactive), the GI50 (MDA-N) was 23.1 µM (inactive) and the GI50 (ACHN) was 26.5 µM (inactive). The GI50 (LOX IMVI) was 17.7 µM (inactive), the GI50 (KM12) was 20.7 µM (inactive) and the GI50 (HT-29) was 12.2 µM (inactive). For the same molecule, the GI50 (UO-31) was 19.1 µM (inactive), the GI50 (NCI-H522) was 30.6 µM (inactive) and the GI50 (SK-MEL-28) was 0.32 µM (active). For the same molecule, the GI50 (IGROV-1) was 25.4 µM (inactive), the GI50 (HOP-92) was 16.2 µM (inactive) and the GI50 (NCI-H23) was 32.9 µM (inactive).
In the case of `O=C(O)CNC(=O)C(CSC(=O)OCC1c2ccccc2-c2ccccc21)NC(=O)CCC(NC(=O)OCC1c2ccccc2-c2ccccc21)C(=O)O` (stereo unspecified), the GI50 (RXF 393) is reported as 18.7 µM (inactive), the GI50 (DU-145) is reported as 15.3 µM (inactive) and the GI50 (SR) is reported as 3.49 µM (inactive). The GI50 (K562) was 17.1 µM (inactive), the GI50 (MDA-MB-231) was 17.9 µM (inactive) and the GI50 (MOLT-4) was 20.1 µM (inactive). For the same molecule, the GI50 (MDA-N) was 28.1 µM (inactive), the GI50 (ACHN) was 18.4 µM (inactive) and the GI50 (LOX IMVI) was 0.0259 µM (active). For the same molecule, the GI50 (UO-31) was 18.7 µM (inactive), the GI50 (NCI-H522) was 1.57 µM (inactive) and the GI50 (SK-MEL-28) was > 100 µM (inactive). For the same molecule, the GI50 (RPMI-8226) was 21.5 µM (inactive), the GI50 (IGROV-1) was 13.1 µM (inactive) and the GI50 (HOP-92) was 21.7 µM (inactive). For the same molecule, the GI50 (TK-10) was 22.2 µM (inactive) and the GI50 (NCI-H23) was 27 µM (inactive).
In the case of `NCC1CCN(c2nc3ccccc3c3c2CCCC3)CC1`, the GI50 (RXF 393) is reported as 2.75 µM (inactive), the GI50 (DU-145) is reported as 13.1 µM (inactive) and the GI50 (A498) is reported as 12.4 µM (inactive). The GI50 (K562) was 2.54 µM (inactive), the GI50 (MDA-MB-231) was 5.57 µM (inactive) and the GI50 (MOLT-4) was 3.59 µM (inactive). For the same molecule, the GI50 (MDA-N) was 2.71 µM (inactive), the GI50 (ACHN) was 12.6 µM (inactive) and the GI50 (LOX IMVI) was 4.81 µM (inactive). For the same molecule, the GI50 (KM12) was 4.28 µM (inactive), the GI50 (HT-29) was 2.42 µM (inactive) and the GI50 (UO-31) was 5.6 µM (inactive). For the same molecule, the GI50 (NCI-H522) was 6.22 µM (inactive), the GI50 (SK-MEL-28) was 5.15 µM (inactive) and the GI50 (RPMI-8226) was 2.31 µM (inactive). For the same molecule, the GI50 (IGROV-1) was 8.85 µM (inactive), the GI50 (HOP-92) was 9.04 µM (inactive) and the GI50 (TK-10) was 12.9 µM (inactive). The GI50 (NCI-H23) was 15.5 µM (inactive).
With `CC(C)N1CCCOC(c2ccc([N+](=O)[O-])cc2)O1` (stereo unspecified) the GI50 (RXF 393) was > 100 µM (inactive), the GI50 (DU-145) was > 100 µM (inactive) and the GI50 (A498) was > 100 µM (inactive). The GI50 (SR) was > 100 µM (inactive), the GI50 (K562) was > 100 µM (inactive) and the GI50 (MDA-MB-231) was > 100 µM (inactive). For the same molecule, the GI50 (MOLT-4) was > 100 µM (inactive), the GI50 (MDA-N) was > 100 µM (inactive) and the GI50 (ACHN) was > 100 µM (inactive). For the same molecule, the GI50 (LOX IMVI) was > 100 µM (inactive), the GI50 (KM12) was > 100 µM (inactive) and the GI50 (HT-29) was > 100 µM (inactive). The GI50 (UO-31) was > 100 µM (inactive), the GI50 (NCI-H522) was > 100 µM (inactive) and the GI50 (SK-MEL-28) was > 100 µM (inactive). The GI50 (IGROV-1) was > 100 µM (inactive), the GI50 (HOP-92) was > 100 µM (inactive) and the GI50 (TK-10) was > 100 µM (inactive). The GI50 (NCI-H23) was > 100 µM (inactive).
`CCCC(=O)NC1=C(NCC)C(=O)c2ccccc2C1=O` was tested, and the GI50 (RXF 393) was 48.3 µM (inactive), the GI50 (DU-145) was > 100 µM (inactive) and the GI50 (SR) was 60.5 µM (inactive). The GI50 (K562) was 50.8 µM (inactive), the GI50 (MDA-MB-231) was 83.4 µM (inactive) and the GI50 (MOLT-4) was 73.3 µM (inactive). For the same molecule, the GI50 (MDA-N) was 20.8 µM (inactive), the GI50 (ACHN) was > 100 µM (inactive) and the GI50 (KM12) was 52.4 µM (inactive). For the same molecule, the GI50 (HT-29) was 44.1 µM (inactive), the GI50 (NCI-H522) was 25.9 µM (inactive) and the GI50 (SK-MEL-28) was 95.7 µM (inactive). The GI50 (RPMI-8226) was > 100 µM (inactive), the GI50 (IGROV-1) was > 100 µM (inactive) and the GI50 (HOP-92) was > 100 µM (inactive). For the same molecule, the GI50 (TK-10) was > 100 µM (inactive) and the GI50 (NCI-H23) was > 100 µM (inactive).
